Values after ≈ are worked out from the molar mass of the structure shown. Active and inactive are the calls of the source. Positions of bridges follow the written chain, without caps; N, C: chain ends. Non-standard residues stand in square brackets, D forms with d. Residues, ends and D or L forms follow the SMILES beside them. S5 = C=CCCC[C@](C)(N)C(=O)O

This is an account of results in ChEMBL document CHEMBL6109103, “Dodecapeptides derived from human cathelicidin with potent activity against carbapenem-resistant Acinetobacter baumannii” (Eur J Med Chem, 2025).

Data set [1] is described as follows: Toxicity in BALB/c mouse assessed as heart damage at 16 mg/kg, ip measured for 3 days by H and E staining based analysis. It is filed as organism-based. The note with it: in vivo, 72 h, time 3 day.
Data set [2] in a line: Toxicity in BALB/c mouse assessed as liver damage at 16 mg/kg, ip measured for 3 days by H and E staining based analysis. It is filed as organism-based. The note with it: in vivo, 72 h, time 3 day.
Data set [3] is described as follows: Toxicity in BALB/c mouse assessed as spleen damage at 16 mg/kg, ip measured for 3 days by H and E staining based analysis. As to conditions: in vivo, 72 h, time 3 day. The data set is classed as organism-based.
A short description of data set [4]: Toxicity in BALB/c mouse assessed as lung damage at 16 mg/kg, ip measured for 3 days by H and E staining based analysis. The note with it: in vivo, 72 h, time 3 day. The data set is classed as organism-based.
The subject of data set [5] is Acinetobacter baumannii. In words: Antibacterial activity against multidrug-resistant Acinetobacter baumannii assessed as inhibition of bacterial growth incubated for 24 hrs by broth dilution assay. The data set is classed as functional. On the technique in general: Dilution methods test growth across graded concentrations, often in twofold steps.
The test system of data set [6] is Acinetobacter baumannii. In words: Antibacterial activity against Acinetobacter baumannii ATCC 19606 assessed as inhibition of bacterial growth incubated for 24 hrs by broth dilution assay. It is filed as functional.
Data set [7] concerns Staphylococcus aureus. Nature of the data set: Antibacterial activity against Methicillin-resistant Staphylococcus aureus ATCC 43300 assessed as inhibition of bacterial growth incubated for 24 hrs by broth dilution assay. It is filed as functional.
Data set [8] concerns Staphylococcus aureus. In words: Antibacterial activity against Staphylococcus aureus […] assessed as inhibition of bacterial growth incubated for 24 hrs by broth dilution assay. It is filed as functional.
For data set [9], the system named is Acinetobacter baumannii. In words: Antibacterial activity against carbapenem-resistant Acinetobacter baumannii clinical isolate 1 assessed as inhibition of bacterial growth incubated for 24 hrs by broth dilution assay. It is filed as functional.
The test system of data set [10] is Acinetobacter baumannii. In words: Antibacterial activity against carbapenem-resistant Acinetobacter baumannii clinical isolate 2 assessed as inhibition of bacterial growth incubated for 24 hrs by broth dilution assay. The data set is classed as functional.
Data set [11] deals with Acinetobacter baumannii. Nature of the data set: Antibacterial activity against carbapenem-resistant Acinetobacter baumannii clinical isolate 3 assessed as inhibition of bacterial growth incubated for 24 hrs by broth dilution assay. The data set is classed as functional.
Data set [12] relates to Acinetobacter baumannii. Nature of the data set: Antibacterial activity against carbapenem-resistant Acinetobacter baumannii clinical isolate 4 assessed as inhibition of bacterial growth incubated for 24 hrs by broth dilution assay. The data set is classed as functional.
Data set [13] deals with Acinetobacter baumannii. In words: Antibacterial activity against carbapenem-resistant Acinetobacter baumannii clinical isolate 5 assessed as inhibition of bacterial growth incubated for 24 hrs by broth dilution assay. The data set is classed as functional.
The subject of data set [14] is Acinetobacter baumannii. In words: Antibacterial activity against carbapenem-resistant Acinetobacter baumannii clinical isolate 6 assessed as inhibition of bacterial growth incubated for 24 hrs by broth dilution assay. It is filed as functional.
The test system of data set [15] is Acinetobacter baumannii. Nature of the data set: Antibacterial activity against carbapenem-resistant Acinetobacter baumannii clinical isolate 7 assessed as inhibition of bacterial growth incubated for 24 hrs by broth dilution assay. It is filed as functional.
Data set [16] relates to Acinetobacter baumannii. In words: Antibacterial activity against carbapenem-resistant Acinetobacter baumannii clinical isolate 8 assessed as inhibition of bacterial growth incubated for 24 hrs by broth dilution assay. The data set is classed as functional.
Data set [17] concerns Acinetobacter baumannii. In words: Synergistic antibacterial activity against carbapenem-resistant Acinetobacter baumannii clinical isolate 6 in presence of CTX by microdilution checkerboard assay. The data set is classed as functional, organism-based.
The subject of data set [18] is Acinetobacter baumannii. In words: Synergistic antibacterial activity against carbapenem-resistant Acinetobacter baumannii clinical isolate 6 in presence of tetracycline by microdilution checkerboard assay. It is filed as functional, organism-based.
The next data set deals with proteinase K. In words: Proteolytic stability assessed as proteinase K (unknown origin)-mediated drug degradation at 500 microg/ml measured for 20 mins by LC-MS analysis. The data set is classed as ADME, Homo sapiens. As to conditions: at 500 µg/mL, read-out: Drug degradation.
A further data set relates to Pseudomonas aeruginosa. In words: Antibacterial activity against human Pseudomonas aeruginosa assessed as inhibition of bacterial growth. It is filed as functional, organism-based.
In a further data set the test system is Escherichia coli. In words: Antibacterial activity against human Escherichia coli assessed as inhibition of bacterial growth. The data set is classed as functional, organism-based.
A short description of data set [19]: Binding affinity to gram negative bacterial lipid II assessed as dissociation constant by BLI analysis. Set-up: species or system Bacteria.
For a further data set, the target named is Lipoteichoic acid. Nature of the data set: Binding affinity to […] bacterial Lipoteichoic acid assessed as dissociation constant by BLI analysis. More on the design: species or system Bacteria.
The subject of data set [20] is Acinetobacter baumannii. Nature of the data set: Induction of morphological changes in carbapenem-resistant Acinetobacter baumannii at 6.25 microg/ml measured for 24 hrs by SEM analysis. It is filed as functional, organism-based. The note with it: dose 6.25 µg/ml.
A further data set concerns HaCaT. Nature of the data set: Cytotoxicity against human HaCaT cells assessed as cell death up to 100 microg/ml measured upto 24 hrs. The data set is classed as toxicity, cell-based. The note with it: dose < 100 µg/ml.
A short description of data set [21]: Hemolytic activity at mouse RBC assessed as hemolysis. It is filed as toxicity, cell-based, Erythrocyte. As to conditions: mouse red blood cells, read-out: Activity.
Data set [22] is described as follows: Toxicity in BALB/c mouse assessed as animal survival at 4 to 64 mg/kg, ip measured for 5 days. The data set is classed as organism-based. As to conditions: in vivo, 120 h, dose 4-64 mg/kg, time 5 day.
A short description of data set [23]: Toxicity in BALB/c mouse assessed as heart damage at 64 mg/kg, ip measured for 3 days by H and E staining based analysis. The data set is classed as organism-based. As to conditions: in vivo, 72 h, time 3 day.
Data set [24] in a line: Toxicity in BALB/c mouse assessed as liver damage at 64 mg/kg, ip measured for 3 days by H and E staining based analysis. The data set is classed as organism-based. As to conditions: in vivo, 72 h, time 3 day.
Data set [25] is described as follows: Toxicity in BALB/c mouse assessed as spleen damage at 64 mg/kg, ip measured for 3 days by H and E staining based analysis. It is filed as organism-based. As to conditions: in vivo, 72 h, time 3 day.
A short description of data set [26]: Toxicity in BALB/c mouse assessed as lung damage at 64 mg/kg, ip measured for 3 days by H and E staining based analysis. As to conditions: in vivo, 72 h, time 3 day. It is filed as organism-based.
Data set [27] can be described thus: Toxicity in BALB/c mouse assessed as kidney damage at 64 mg/kg, ip measured for 3 days by H and E staining based analysis. The data set is classed as organism-based. As to conditions: in vivo, 72 h, time 3 day.
Data set [28] deals with Acinetobacter baumannii. Nature of the data set: Antibacterial activity against carbapenem-resistant Acinetobacter baumannii clinical isolate 6 infected in BALB/c mouse assessed as survival rate at 1.25 mg/kg, NAS administered once a day for 3 days. The note with it: 72 h, time 3 day. It is filed as functional.
Data set [29] is described as follows: Toxicity in BALB/c mouse assessed as animal survival at 1.25 mg/kg, NAS measured for 5 days. It is filed as organism-based. The note with it: in vivo, inhaled or intranasal, time 5 day.
The next data set relates to HUVEC. Nature of the data set: Cytotoxicity against HUVEC cells assessed as cell death up to 50 microg/ml measured up to 24 hrs. The data set is classed as toxicity, cell-based. The note with it: human, up to 50 µg/mL.
The subject of another data set is A549. Nature of the data set: Cytotoxicity against human A549 cells assessed as cell death up to 50 microg/ml measured up to 24 hrs. The data set is classed as toxicity, cell-based. The note with it: a549, 24 h, up to 50 µg/mL.

For the compound `CC(C)CCCCC(=O)N[C@@H](CCN)C(=O)N[C@H](C(=O)N[C@@H](CCN)C(=O)N[C@H]1CCNC(=O)[C@H]([C@@H](C)O)NC(=O)[C@H](CCN)NC(=O)[C@H](CCN)NC(=O)[C@H](CC(C)C)NC(=O)[C@@H](Cc2ccccc2)NC(=O)[C@H](CCN)NC1=O)[C@@H](C)O.CC[C@H](C)CCCCC(=O)N[C@@H](CCN)C(=O)N[C@H](C(=O)N[C@@H](CCN)C(=O)N[C@H]1CCNC(=O)[C@H]([C@@H](C)O)NC(=O)[C@H](CCN)NC(=O)[C@H](CCN)NC(=O)[C@H](CC(C)C)NC(=O)[C@@H](Cc2ccccc2)NC(=O)[C@H](CCN)NC1=O)[C@@H](C)O` (HELM PEPTIDE1{[CC[C@H](C)CCCCC(=O)[*:2]].[Dab].T.[Dab].[Dab].[Dab].[dF].L.[Dab].[Dab].T}$PEPTIDE1,PEPTIDE1,5:R3-11:R2$$$V2.0), the Activity entry in data set [1], in data set [2], in [3] and in data set [4] was “Non-toxic” each time.

One may read the MIC as the smallest concentration in the dilution series that meets the test's criterion for growth inhibition. The Kd is the free concentration of one partner at which half of the binding sites on the other are occupied at equilibrium, for simple one-to-one binding. As for `CC[C@H](C)[C@H](NC(=O)[C@H](CCCNC(=N)N)NC(=O)[C@@H](N)CCCCN)C(=O)N[C@@]1(C)CCC/C=C\CCC[C@@](C)(C(=O)N[C@H](C(=O)N[C@@H](Cc2ccccc2)C(=O)N[C@@H](CC(C)C)C(=O)N[C@@H](CCCNC(=N)N)C(=O)O)[C@@H](C)CC)NC(=O)[C@H]([C@@H](C)CC)NC(=O)[C@H](CCCNC(=N)N)NC(=O)[C@H](CCCNC(=N)N)NC1=O` (H-KRI[S5]RRI[S5]IFLR-OH; staple (Z) 4-8), the MIC in the data set with Acinetobacter baumannii [5] turned out to be 5 µg/mL (≈ 3.08 µM); with Acinetobacter baumannii [6], 5 µg/mL (≈ 3.08 µM); in the data set on Staphylococcus aureus [7] it was 80 µg/mL (≈ 49.3 µM); in the data set with Staphylococcus aureus [8] it was 80 µg/mL (≈ 49.3 µM); in the data set with Acinetobacter baumannii [9] it was 5 µg/mL (≈ 3.08 µM); with Acinetobacter baumannii [10], 10 µg/mL (≈ 6.17 µM). Further, the minimal inhibitory concentration (MIC) with Acinetobacter baumannii [11] came out at 5 µg/mL (≈ 3.08 µM); in the data set on Acinetobacter baumannii [12], 10 µg/mL (≈ 6.17 µM); in the data set on Acinetobacter baumannii [13], 5 µg/mL (≈ 3.08 µM); in the data set with Acinetobacter baumannii [14], 2.5 µg/mL (≈ 1.54 µM); in the data set on Acinetobacter baumannii [15] it was 20 µg/mL (≈ 12.3 µM); with Acinetobacter baumannii [16], 5 µg/mL (≈ 3.08 µM). Further, the result in the data set with Acinetobacter baumannii [17], with Acinetobacter baumannii [18], in the data set on Pseudomonas aeruginosa, in the data set on Escherichia coli and with Acinetobacter baumannii [20] was Active. Further, the metabolised at 20 min, 500 microg/ml with proteinase K turned out to be 17.8%. The Kd in data set [19] was 5.9 nM; at Lipoteichoic acid, 48.9 nM. For the same compound, the Activity entry (in the data set on HaCaT; in data set [22]; in data set [23]; in data set [24]; in data set [25]; in [26]) was “Non-toxic” in each case. Moreover, the Activity result in data set [27] is on record as “Non-toxic”. Also, the hemolysis in [21] was under 1%. In addition, in the data set on Acinetobacter baumannii [28], the survival at 1.25 mg/kg was 50%. For the same compound, the survival at 120 h in [29] amounted to 70%.

Turning to `CC[C@H](C)[C@H](NC(=O)[C@H](CCCCN)NC(=O)[C@H](CCC(=O)O)NC(=O)[C@H](CCCCN)NC(=O)[C@H](CO)NC(=O)[C@H](CCCCN)NC(=O)[C@H](CCCNC(=N)N)NC(=O)[C@H](Cc1ccccc1)NC(=O)[C@H](Cc1ccccc1)NC(=O)[C@H](CC(=O)O)NC(=O)CNC(=O)[C@H](CC(C)C)NC(=O)[C@@H](N)CC(C)C)C(=O)NCC(=O)N[C@@H](CCCCN)C(=O)N[C@@H](CCC(=O)O)C(=O)N[C@@H](Cc1ccccc1)C(=O)N[C@@H](CCCCN)C(=O)N[C@@H](CCCNC(=N)N)C(=O)N[C@H](C(=O)N[C@H](C(=O)N[C@@H](CCC(N)=O)C(=O)N[C@@H](CCCNC(=N)N)C(=O)N[C@H](C(=O)N[C@@H](CCCCN)C(=O)N[C@@H](CC(=O)O)C(=O)N[C@@H](Cc1ccccc1)C(=O)N[C@@H](CC(C)C)C(=O)N[C@@H](CCCNC(=N)N)C(=O)N[C@@H](CC(N)=O)C(=O)N[C@@H](CC(C)C)C(=O)N[C@H](C(=O)N1CCC[C@H]1C(=O)N[C@@H](CCCNC(=N)N)C(=O)N[C@H](C(=O)N[C@@H](CCC(=O)O)C(=O)N[C@@H](CO)C(=O)O)[C@@H](C)O)C(C)C)[C@@H](C)CC)C(C)C)[C@@H](C)CC` [CATHELICIDIN], the minimal inhibitory concentration (MIC) is 10 µg/mL (≈ 2.23 µM) with Acinetobacter baumannii [5], 40 µg/mL (≈ 8.9 µM) in the data set with Acinetobacter baumannii [6], 320 µg/mL (≈ 71.2 µM) in the data set with Staphylococcus aureus [7] and over 320 µg/mL with Staphylococcus aureus [8]. Moreover, the Activity in the data set on HUVEC and in the data set with A549 was 29% each time.
